# Measurements published in ChEMBL document CHEMBL1139593, “Synthesis and biological evaluation of chromone carboxamides as calpain inhibitors” (Bioorg Med Chem Lett, 2005).
# Square brackets hold non-standard residues; d marks the D form. Peptide text beside a SMILES is read from it. * marks the point of attachment. ξ: configuration not given here. ξF = NC(Cc1ccccc1)C(=O)O; Cbz = O=C(OCc1ccccc1)*
# What was measured:
# [1] = biological target: T1, Calpain-1 catalytic subunit (Homo sapiens, UniProt P07384); experiment: Inhibitory concentration against human plasma mu-calpain; type: cell-free
# T1 sequence (P07384 whole entry): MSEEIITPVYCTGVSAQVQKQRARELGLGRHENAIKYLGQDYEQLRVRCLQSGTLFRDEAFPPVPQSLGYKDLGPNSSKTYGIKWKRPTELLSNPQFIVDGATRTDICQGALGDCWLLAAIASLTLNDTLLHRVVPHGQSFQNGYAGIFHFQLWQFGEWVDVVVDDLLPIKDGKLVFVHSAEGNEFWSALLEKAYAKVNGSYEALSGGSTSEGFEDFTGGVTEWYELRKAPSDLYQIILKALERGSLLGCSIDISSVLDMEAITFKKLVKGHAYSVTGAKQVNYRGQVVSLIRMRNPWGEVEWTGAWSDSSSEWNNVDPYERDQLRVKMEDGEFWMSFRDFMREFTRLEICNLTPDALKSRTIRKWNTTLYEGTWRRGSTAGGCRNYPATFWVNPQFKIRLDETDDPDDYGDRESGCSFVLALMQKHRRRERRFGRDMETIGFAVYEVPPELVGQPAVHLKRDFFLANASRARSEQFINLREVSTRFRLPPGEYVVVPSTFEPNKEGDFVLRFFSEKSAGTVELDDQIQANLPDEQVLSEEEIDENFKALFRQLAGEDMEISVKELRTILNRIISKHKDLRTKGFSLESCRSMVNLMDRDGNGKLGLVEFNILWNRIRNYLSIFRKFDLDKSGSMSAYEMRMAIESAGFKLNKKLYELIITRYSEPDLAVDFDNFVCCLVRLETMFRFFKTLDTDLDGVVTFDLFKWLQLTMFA
# [2] = biological target: Procathepsin L (Homo sapiens) (UniProt P07711); experiment: Percent inhibition of human liver cathepsin L at 2 uM
# Procathepsin L (Homo sapiens), sequence (P07711 114-333 limits assumed): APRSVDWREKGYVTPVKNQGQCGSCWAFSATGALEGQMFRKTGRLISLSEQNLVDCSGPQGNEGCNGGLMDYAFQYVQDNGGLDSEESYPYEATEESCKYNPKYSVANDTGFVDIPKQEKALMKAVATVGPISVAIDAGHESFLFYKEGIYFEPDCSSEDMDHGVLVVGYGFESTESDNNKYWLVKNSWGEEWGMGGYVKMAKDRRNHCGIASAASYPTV
# [3] = biological target: Procathepsin L (Homo sapiens) (UniProt P07711); experiment: Percent inhibition of human liver cathepsin L at 20 uM
# Cathepsin B (Bos taurus) [4] = biological target: Cathepsin B (Bos taurus) (UniProt P07688); experiment: Percent inhibition of bovine cathepsin B at 20 uM
# Cathepsin B (Bos taurus) [5] = biological target: Cathepsin B (Bos taurus) (UniProt P07688); experiment: Percent inhibition of bovine cathepsin B at 0.2 uM
# Cathepsin B (Bos taurus) [6] = biological target: Cathepsin B (Bos taurus) (UniProt P07688); experiment: Percent inhibition of bovine cathepsin B at 2 uM
# [7] = biological target: Procathepsin L (Homo sapiens) (UniProt P07711); experiment: Percent inhibition of human liver cathepsin L at 0.2 uM
IC50 [1] [nM],inhibition [2] [%],inhibition [3] [%],inhibition (Cathepsin B (Bos taurus) [4]) [%],inhibition (Cathepsin B (Bos taurus) [5]) [%],inhibition (Cathepsin B (Bos taurus) [6]) [%],inhibition [7] [%],Structure (SMILES)
810,86.3,96.6,92.2,26.3,60.8,32.5,Cc1c(C(=O)N[C@@H](Cc2ccccc2)C(=O)C(N)=O)oc2cc3c(cc2c1=O)OCCO3
8730,87.7,99.1,79.9,21.5,55.4,54.2,NC(=O)C(=O)[C@H](Cc1ccccc1)NC(=O)c1cc(=O)c2ccccc2o1
5690,17.5,71.2,42.6,0,0,2.1,Cc1c(C(=O)N[C@@H](Cc2ccccc2)C(=O)C(=O)NC(C)C)oc2ccccc2c1=O
4530,66.8,95.7,41.4,0,35.3,7.4,Cc1c(C(=O)N[C@@H](Cc2ccccc2)C(=O)C(=O)NCCc2ccccc2)oc2cc3c(cc2c1=O)OCCO3
450,89.2,96.6,91.5,16.9,61.2,31.9,CCc1c(C(=O)N[C@@H](Cc2ccccc2)C(=O)C(N)=O)oc2ccccc2c1=O
530,78.9,98.3,82.1,0,49,10.1,Cc1c(C(=O)N[C@@H](Cc2ccccc2)C(=O)C(=O)NCCc2ccccc2)oc2ccccc2c1=O
2480,83.8,95.8,58.2,0,18.6,12.7,Cc1c(C(=O)N[C@@H](Cc2ccccc2)C(=O)C(=O)NCc2ccccc2)oc2cc3c(cc2c1=O)OCCO3
> 20000,26.5,92,20.2,0,0,0,Cc1c(C(=O)N[C@@H](Cc2ccccc2)C(=O)C(=O)NCCN2CCOCC2)oc2cc3c(cc2c1=O)OCCO3
–,100,100,100,96,96.6,100,CC(C)[C@H](NC(=O)OCc1ccccc1)C(=O)NC(C=O)Cc1ccccc1 (stereo partly drawn) (Cbz-Val-[ξF]-aldehyde)
720,65.3,95.6,67.9,0,21.3,8.1,Cc1c(C(=O)N[C@@H](Cc2ccccc2)C(=O)C(=O)NCc2ccccc2)oc2ccccc2c1=O
8170,9.6,69.6,23.9,0,0,0,Cc1c(C(=O)N[C@@H](Cc2ccccc2)C(=O)C(=O)NCCN2CCOCC2)oc2ccccc2c1=O
> 20000,24.6,74.9,42.2,0,0,1.7,Cc1c(C(=O)N[C@@H](Cc2ccccc2)C(=O)C(=O)NC(C)C)oc2cc3c(cc2c1=O)OCCO3
240,81.5,98.1,91.5,14.4,63.2,22.4,Cc1c(C(=O)N[C@@H](Cc2ccccc2)C(=O)C(N)=O)oc2ccccc2c1=O
